Assay results: ChEMBL document CHEMBL4043214, “Design, synthesis, and SAR study of 3-(benzo[d][1,3]dioxol-5-yl)-N-benzylpropanamide as novel potent synergists against fluconazole-resistant Candida albicans” (2017)
≈ marks a conversion by molar mass, not a printed value.

Columns and labels:
Type in all cases: functional
[1] = test system: Candida albicans; assay: Anti-fungal activity against fluconazole-resistant Candida albicans isolate 103 by microbroth dilution method
[2] = test system: Candida albicans; assay: Potentiation of fluconazole-induced anti-fungal activity against fluconazole-resistant Candida albicans isolate 103 by two-fold dilution method
[3] = test system: Candida albicans; assay: Synergistic anti-fungal activity against fluconazole-resistant Candida albicans isolate 103 in presence of fluconazole by two-fold dilution method
[4] = test system: Candida albicans; assay: Synergistic anti-fungal activity against fluconazole-resistant Candida albicans isolate 100 in presence of fluconazole by two-fold dilution method
[5] = test system: Candida albicans; assay: Potentiation of fluconazole-induced anti-fungal activity against fluconazole-resistant Candida albicans isolate 100 by two-fold dilution method
[6] = test system: Candida albicans; assay: Anti-fungal activity against fluconazole-resistant Candida albicans isolate 100 by microbroth dilution method

Row | Structure (SMILES) | MIC80 [1] | fractional inhibitory concentration index (FICI) [2] | MIC80 [3] | MIC80 [4] | fractional inhibitory concentration index (FICI) [5] | MIC80 [6]
1 | O=C(CCc1ccc2c(c1)OCO2)NCc1ccc(-c2ccco2)cc1 | > 64 µg/mL | 0.094 | 4 µg/mL | 2 µg/mL | 0.078 | > 64 µg/mL
2 | Cc1ccc(-c2cccc(CNC(=O)CCc3ccc4c(c3)OCO4)c2)cc1 | > 64 µg/mL | 0.078 | 2 µg/mL | 1 µg/mL | 0.07 | > 64 µg/mL
3 | O=C(CCc1ccc2c(c1)OCO2)NCc1ccc(-c2ccsc2)cc1 | > 64 µg/mL | 0.064 | 0.25 µg/mL | 0.25 µg/mL | 0.064 | > 64 µg/mL
4 | O=C(CCc1ccc2c(c1)OCO2)NCc1ccc(-c2ccc(C(F)(F)F)cc2)cc1 | > 64 µg/mL | 0.094 | 4 µg/mL | 4 µg/mL | 0.094 | > 64 µg/mL
5 | O=C(CCc1ccc2c(c1)OCO2)NCc1cccc(-c2ccc(F)cc2)c1 | > 64 µg/mL | 0.07 | 1 µg/mL | 0.5 µg/mL | 0.066 | > 64 µg/mL
6 | COc1ccc(-c2ccc(CNC(=O)CCc3ccc4c(c3)OCO4)cc2)cc1 | > 64 µg/mL | 0.066 | 0.5 µg/mL | 0.25 µg/mL | 0.064 | > 64 µg/mL
7 | O=C(Cc1ccccc1F)NCCc1ccc2c(c1)OCO2 | > 64 µg/mL | 0.07 | 1 µg/mL | 1 µg/mL | 0.07 | > 64 µg/mL
8 | O=C(CCc1ccc2c(c1)OCO2)NCc1ccc(-c2ccncc2)cc1 | > 64 µg/mL | 0.125 | 8 µg/mL | 8 µg/mL | 0.125 | > 64 µg/mL
9 | O=C(CCc1ccc2c(c1)OCO2)NCc1ccccc1F | > 64 µg/mL | 0.066 | 0.5 µg/mL | 0.5 µg/mL | 0.066 | > 64 µg/mL
10 | Cc1cccc(-c2ccc(CNC(=O)CCc3ccc4c(c3)OCO4)cc2)c1 | > 64 µg/mL | 0.07 | 1 µg/mL | 0.5 µg/mL | 0.066 | > 64 µg/mL
11 | OC(Cn1cncn1)(Cn1cncn1)c1ccc(F)cc1F [FLUCONAZOLE] | 128 µg/mL (≈ 418 µM) |  |  |  |  | 128 µg/mL (≈ 418 µM)
12 | O=C(CCc1ccc2c(c1)OCO2)NCc1ccccc1Br | > 64 µg/mL | 0.07 | 1 µg/mL | 1 µg/mL | 0.07 | > 64 µg/mL
13 | O=C(CCc1ccc2c(c1)OCO2)NCc1ccc(Br)cc1 | > 64 µg/mL | 0.07 | 1 µg/mL | 0.5 µg/mL | 0.066 | > 64 µg/mL
14 | O=C(CCc1ccc2c(c1)OCO2)NCc1ccc(-c2cccc(F)c2)cc1 | > 64 µg/mL | 0.064 | 0.25 µg/mL | 0.25 µg/mL | 0.064 | > 64 µg/mL
15 | O=C(CCc1ccc2c(c1)OCO2)NCc1ccc(-c2ccc(Cl)cc2)cc1 | > 64 µg/mL | 0.066 | 0.5 µg/mL | 0.5 µg/mL | 0.066 | > 64 µg/mL
16 | N#Cc1ccc(-c2ccc(CNC(=O)CCc3ccc4c(c3)OCO4)cc2)cc1 | > 64 µg/mL | 0.125 | 8 µg/mL | 8 µg/mL | 0.125 | > 64 µg/mL
17 | Cc1ccccc1CNC(=O)CCc1ccc2c(c1)OCO2 | > 64 µg/mL | 0.066 | 0.5 µg/mL | 0.25 µg/mL | 0.064 | > 64 µg/mL
18 | O=C(CCc1ccc2c(c1)OCO2)NCc1cccc(Br)c1 | > 64 µg/mL | 0.078 | 2 µg/mL | 2 µg/mL | 0.078 | > 64 µg/mL
19 | O=C(CCc1ccc2c(c1)OCO2)NCc1ccc(-c2ccc(F)cc2F)cc1 | > 64 µg/mL | 0.063 | 0.125 µg/mL | 0.063 µg/mL | 0.063 | > 64 µg/mL
20 | Cc1ccc(-c2ccccc2CNC(=O)CCc2ccc3c(c2)OCO3)cc1 | > 64 µg/mL | 0.064 | 0.25 µg/mL | 0.25 µg/mL | 0.064 | > 64 µg/mL
21 | O=C(CCc1ccc2c(c1)OCO2)NCc1cccc(F)c1 | > 64 µg/mL | 0.07 | 1 µg/mL | 1 µg/mL | 0.07 | > 64 µg/mL
22 | O=C(CCc1ccc2c(c1)OCO2)NCc1ccc(-c2cccs2)cc1 | > 64 µg/mL | 0.063 | 0.125 µg/mL | 0.063 µg/mL | 0.063 | > 64 µg/mL
23 | O=C(CCc1ccc2c(c1)OCO2)NCc1ccccc1-c1ccc(F)cc1 | > 64 µg/mL | 0.066 | 0.5 µg/mL | 0.5 µg/mL | 0.066 | > 64 µg/mL
